Laboratory results taken from the METLIN SMRT retention time set (Domingo-Almenara et al. 2019).

Test: gradient 5% acetonitrile 3 min, to 50% in 2 min, to 85% in 15 min, held 3 min, 100 µL/min
Conditions: column: Zorbax Extend-C18 2.1 x 50 mm; eluents: water / acetonitrile, 0.1% formic acid
Method in brief: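 Mixtures of ~100 pure standards were chromatographed on a Zorbax Extend-C18 column (2.1 × 50 mm, 1.8 μm) at 100 μL/min using water and acetonitrile, each with 0.1% formic acid. Detection used a quadrupole time-of-flight mass spectrometer in positive and negative ionization mode, and data collection spanned 3 months. Retention time was obtained from adduct peaks picked computationally and each checked manually.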

Work on `O=S(=O)(Nc1cccc(C(F)(F)F)c1)c1ccc2c(c1)-c1oncc1CO2` yielded an RP-LC retention time of 998 s.

In the case of `O=C(Nc1c(F)cccc1F)N1CCc2[nH]cnc2C1c1ccccc1` (centres undefined), the RP-LC retention time is reported as 608 s.

`Cc1cc(C)n2c(Nc3c(C)cccc3C)c(-c3ccccc3)nc2n1` gave an RP-LC retention time of 743 s.

`CC1CN=C2C=C(N3CCN(C(=O)CCc4ccccc4)CC3)N=CN21` (centres undefined) gave an RP-LC retention time of 620 s.

Work on `Cc1c(C(=O)N2CCN(C(=O)COc3ccccc3)CC2)[nH]c2ccccc12` yielded an RP-LC retention time of 819 s.

`O=C1[C@H]2CN(Cc3ccc(Cl)cc3)C[C@H]2C(=O)N1CCN1CCc2ccccc2C1` showed an RP-LC retention time of 740 s.

Compound `Cc1ccc(C(=O)Nc2nccnc2C(=O)NC2CCCCC2)cc1` has an RP-LC retention time of 1100 s.

With `CC(=O)Nc1cc(C(=O)NC2CCCC2)c2ccc(C)nc2c1` the RP-LC retention time was 600 s.

`CN1C(=O)c2cccnc2Sc2cc(C(=O)NC3CCCC3)ccc21` showed an RP-LC retention time of 726 s.

For `O=C(Cn1c(=O)c2cc(-c3ccco3)nn2c2ncccc21)NC1CCCC1`, the RP-LC retention time was 698 s.

Compound `O=C(Nc1cccnc1)C1(CCO)CCN(c2ncccn2)C1` (centres undefined) has an RP-LC retention time of 529 s.

With `CCCNC(=O)N1CCN(Cc2nc3cccnc3n2-c2ccc(CC)cc2)CC1` the RP-LC retention time was 641 s.

For `CCc1ccc(S(=O)(=O)c2ccccc2)cc1S(=O)(=O)NCCCN(C)C`, the RP-LC retention time was 687 s.

`CC(C)(C)CC(=O)NCCn1c(=O)n(Cc2ccc(F)cc2)c2cccnc21` showed an RP-LC retention time of 808 s.

For `Cc1nnc(N2CCC(C(=O)NCCCN3CCCC3=O)CC2)c2nn(-c3ccccc3)c(C)c12`, the RP-LC retention time was 622 s.

Compound `CCC(C)NC(=O)C1CCCN(c2nccn3nc(-c4ccc(C)cc4C)cc23)C1` (centres undefined) has an RP-LC retention time of 908 s.

Compound `CCOc1ccc(OCC)c(NC(=O)C2CCN(C(=O)C3Sc4ccccc4NC3=O)CC2)c1` (centres undefined) has an RP-LC retention time of 882 s.

`Cc1cc(=O)n(CC(=O)NCc2ccccc2Cl)c(N(C)Cc2ccccc2)n1` gave an RP-LC retention time of 762 s.

In the case of `O=C(CSc1nccnc1N1CCN(c2ccccc2)CC1)Nc1ccc(F)cc1F`, the RP-LC retention time is reported as 1110 s.

For `Cc1cc(S(=O)(=O)N2CCC(n3c(-c4ccco4)nc4cccnc43)C2)ccc1F` (centres undefined), the RP-LC retention time was 827 s.

For `O=C1N=C(N2CCOCC2)S/C1=C/c1ccc(-c2ccccc2Br)o1`, the RP-LC retention time was 872 s.

`CCc1ccc(C2=C(C)C(N3CCCN(C(=O)C4CCOC4)CC3)=NS2(=O)=O)cc1` (centres undefined) gave an RP-LC retention time of 749 s.

Work on `CCS(=O)(=O)N1CCCc2cc(C(=O)NCCCOC)ccc21` yielded an RP-LC retention time of 700 s.

Work on `O=C(Nc1c(F)cccc1F)N1CCc2nc(-c3ccc(Cl)cc3)ncc2C1` yielded an RP-LC retention time of 954 s.

With `CCN1CCN(C(=O)CN2c3ccc(F)cc3-c3ccccc3S2(=O)=O)CC1` the RP-LC retention time was 639 s.

With `CCCN(CCC)S(=O)(=O)c1cc(-c2nnc(C)o2)co1` the RP-LC retention time was 897 s.

`O=C(NCc1cccs1)c1ccc2c(c1)CC(=O)N2Cc1ccccc1` gave an RP-LC retention time of 817 s.

For `O=c1ccc(-c2cccc(Br)c2)nn1Cc1ccncc1`, the RP-LC retention time was 595 s.

`O=C(c1ccsc1)N1CCN(c2nnc3c(Cl)cccn23)CC1` gave an RP-LC retention time of 635 s.

Work on `Cc1nnc(-c2nnc(NCC(C)C)c3ccccc23)o1` yielded an RP-LC retention time of 652 s.

Work on `CNC(=O)[C@H]1C[C@H](Oc2ccccc2)CN1C(=O)CCc1nc2ccccc2s1` yielded an RP-LC retention time of 759 s.

`CCN(CC)CCNC(=O)c1ccc2cnn(Cc3ccc(F)cc3)c2c1` gave an RP-LC retention time of 650 s.

`Cc1noc(CNS(=O)(=O)c2ccc(OC(F)(F)F)cc2)n1` showed an RP-LC retention time of 818 s.

Compound `CC(NC(=O)Cn1c(C(F)(F)F)nc2cc3c(cc21)OCCO3)c1ccc2c(c1)OCCCO2` (centres undefined) has an RP-LC retention time of 855 s.

Work on `CC(C)C(=O)Nc1ccc(CCc2nc3ccc(C(=O)NC4CCCCC4)cc3[nH]2)cc1` yielded an RP-LC retention time of 672 s.

Compound `O=C(C1=CN(c2ccccc2)c2cc(Cl)ccc2S1(=O)=O)N1CCCC1` has an RP-LC retention time of 827 s.

`CSc1ccc(-c2nc3ccccn3c2Nc2ccc(Cl)cc2)cc1` showed an RP-LC retention time of 779 s.

With `CCN1CCCCc2cc(C(=O)NC(C)(C)C)sc21` the RP-LC retention time was 1080 s.

In the case of `COC(=O)c1ccccc1NC(=O)N1CCN(c2ccc(=O)n(-c3ccccc3)n2)CC1`, the RP-LC retention time is reported as 876 s.

Work on `O=C(NCc1cccnc1)c1ccc(-c2cccs2)nc1` yielded an RP-LC retention time of 586 s.

Work on `COc1ccc(N2C(=O)C3N=NN(Cc4nc(-c5ccc(Br)cc5)no4)C3C2=O)cc1` (centres undefined) yielded an RP-LC retention time of 1020 s.

`O=C(Nc1ccccc1C(F)(F)F)N1CCN(c2ccc(=O)n(-c3ccc(F)cc3)n2)CC1` showed an RP-LC retention time of 794 s.

In the case of `CCc1noc(C)c1-c1[nH]c2ccccc2c1C(=O)C(=O)N(C)C`, the RP-LC retention time is reported as 714 s.

For `O=C(Nc1ccc(N2CCCN(C(=O)C3CC3)CC2)cc1)c1cc(-c2ccc(F)cc2)n[nH]1`, the RP-LC retention time was 730 s.

Compound `CC(C)CC(=O)Nc1ccc(N2CCN(CC(=O)N(C)C)CC2)cc1C(=O)O` has an RP-LC retention time of 595 s.

For `CC(C)Cc1nc(CNC(=O)C2CCCCC2)no1`, the RP-LC retention time was 836 s.

With `Cc1cc(C)c2c(N3CCOCC3)nc(C(=O)NCc3ccc(F)cc3F)nc2n1` the RP-LC retention time was 651 s.

With `COc1ccc(-c2nc3cnccn3c2Nc2ccc(C(=O)NC3CCCCC3)cc2)cc1` the RP-LC retention time was 798 s.

`CCCn1nnc(NCc2ccc(-c3ccc(C)c(Cl)c3)o2)n1` gave an RP-LC retention time of 1130 s.

`O=C(Nc1ccc(-c2ccn[nH]2)cc1)c1cccnc1` showed an RP-LC retention time of 678 s.

`CCN1C(=O)COc2ccc(-c3nc(NC(=O)c4cccc(OC)c4)sc3C)cc21` showed an RP-LC retention time of 1040 s.

For `CC(=O)Nc1ccc(NC(=O)Cn2cccc(-c3nc(-c4ccccc4)no3)c2=O)cc1`, the RP-LC retention time was 694 s.

Compound `COc1ccc(C2c3c(oc4cc(C)c(C)cc4c3=O)C(=O)N2CCCN2CCOCC2)cc1OC` (centres undefined) has an RP-LC retention time of 766 s.

In the case of `O=C(NC1CC1)c1ccc(OCC2CCCN2C(=O)Cc2ccc(F)cc2)cc1` (centres undefined), the RP-LC retention time is reported as 813 s.

Work on `CCCCC(=O)N(Cc1ccc(-c2ccccc2-c2nn[nH]n2)cc1)[C@H](C(=O)O)C(C)C` yielded an RP-LC retention time of 865 s.

`Cc1cc2nnc(SCC(=O)c3ccc4c(c3)OCO4)n2c2ccccc12` gave an RP-LC retention time of 793 s.

For `CCN(CC)S(=O)(=O)c1ccc2nc(N3CCN(Cc4ccc5c(c4)OCO5)CC3)cnc2c1`, the RP-LC retention time was 685 s.

In the case of `Cc1ccccc1-c1noc(CCc2nnc3ccc(N4CCOCC4)nn23)n1`, the RP-LC retention time is reported as 782 s.

In the case of `CCOc1nccnc1NC1CCN(C(=O)Cc2cccs2)CC1`, the RP-LC retention time is reported as 740 s.

In the case of `COc1ccc(CNC(=O)c2cc(-c3ccncc3)cn2C)cc1OC`, the RP-LC retention time is reported as 605 s.

`CN(C)CCNC(=O)CN1C(=O)CN(C(=O)NCc2ccccc2)c2ccccc21` showed an RP-LC retention time of 606 s.

With `O=C(c1ccsc1)N1CC(n2cc(C(=O)N3CCOCC3)nn2)C1` the RP-LC retention time was 609 s.

In the case of `CCN1C(=O)COc2ccc(-c3csc(NC(=O)C(C)C)n3)cc21`, the RP-LC retention time is reported as 830 s.

With `O=C(Nc1ccc(Br)cc1F)C1CCCN(c2cnc3ccccc3n2)C1` (centres undefined) the RP-LC retention time was 1070 s.

For `COc1ccccc1-c1noc(C2CCCN2C(=O)Nc2ccccc2C)n1` (centres undefined), the RP-LC retention time was 827 s.

Work on `COc1ccc(CN2C(=O)COC[C@H]2C(=O)NCC2CC2)c(OC)c1` yielded an RP-LC retention time of 696 s.

`CCOc1ccc(NC(=O)Nc2nccn(-c3ccccc3OC)c2=O)cc1` gave an RP-LC retention time of 935 s.

Work on `CCCCCCNC(=O)C1CCCN(c2ncc(-c3ccc(F)cc3)cn2)C1` (centres undefined) yielded an RP-LC retention time of 1160 s.

Compound `Cc1cc(C)n2nc(CN(C(=O)c3cccs3)c3ccccc3)nc2n1` has an RP-LC retention time of 777 s.

With `CCc1nc(-c2cc(S(=O)(=O)N3CCC(C(=O)N4CCCCCC4)CC3)c(C)s2)no1` the RP-LC retention time was 1030 s.

In the case of `O=C1CC(C(=O)N2CCc3ccccc32)CN1CCc1c[nH]c2ccc(F)cc12` (centres undefined), the RP-LC retention time is reported as 1270 s.

Compound `COc1ccc(C(C)NC(=O)c2cn3cc(C)ccc3n2)cc1` (centres undefined) has an RP-LC retention time of 671 s.

For `CCOC(=O)C(=O)Nc1ccc(SCc2nnc(-c3ccc4c(c3)OCO4)o2)cc1`, the RP-LC retention time was 866 s.

For `O=C1c2ccccc2C(=O)N1CCCCN(C(=O)c1cccs1)c1ccc(F)cc1F`, the RP-LC retention time was 951 s.

`Cc1nn(-c2nc(-c3ccc(Cl)cc3)cs2)c(C)c1CC(=O)NCc1ccccc1` showed an RP-LC retention time of 1170 s.

For `O=C(c1ccc2c(=O)n3c(nc2c1)CCCC3)N1CCN(c2ccccn2)CC1`, the RP-LC retention time was 564 s.

Work on `CC(=O)Nc1ccc(C(=O)NC(C(=O)N2CCCc3ccccc32)c2ccccc2)cc1` (centres undefined) yielded an RP-LC retention time of 850 s.

`COc1cc(NS(=O)(=O)c2c[nH]c3ncccc23)cc(OC)c1` gave an RP-LC retention time of 707 s.

`COc1ccc(CNC(=O)CSc2cc(N3CCN(c4ccccc4OC)CC3)ncn2)cc1` showed an RP-LC retention time of 1090 s.

With `CCOC(=O)c1c(C)c(C(=O)OCC)n(C)c1C` the RP-LC retention time was 1080 s.

Compound `CC(=O)c1cccc(NC(=O)Cn2cc3c(n2)CCCCC3)c1` has an RP-LC retention time of 821 s.

For `CC(C)(C)C(=O)Nc1cnc(-c2cccc(Cl)c2)nc1`, the RP-LC retention time was 1070 s.

In the case of `CCOC(=O)c1ccccc1NC(=O)N1CCSc2nc(C)cc(C)c21`, the RP-LC retention time is reported as 1000 s.

Compound `COc1ccc(N2CC(c3nc4ccccc4n3CCN3CCOCC3)CC2=O)cc1` (centres undefined) has an RP-LC retention time of 600 s.

For `CC(=O)N1CCc2c(sc(NC(=O)c3cc(=O)c4ccccc4o3)c2C#N)C1`, the RP-LC retention time was 670 s.

`Cc1cc2cc(CNC(=O)Nc3cccc(Cl)c3)ccc2[nH]1` gave an RP-LC retention time of 843 s.

`CC1CCN(C(=O)c2ccccc2OCC2CCCN(C3CCCC3)C2)CC1` (centres undefined) gave an RP-LC retention time of 696 s.

`CN1C(=O)c2cc(C(=O)N3CCCCC3)nn2CC1(C)C(=O)NC1CCCCCC1` (centres undefined) gave an RP-LC retention time of 782 s.

In the case of `COC(=O)c1ccc(C(=O)Nc2nc3c(s2)CCc2ccccc2-3)cc1`, the RP-LC retention time is reported as 1120 s.
